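Tested at 5 concentrations; 48 h exposure; 96-well plates; endpoints linearly interpolated, else capped at highest concentration. Here, GI50 denotes the concentration required for 50% inhibition of growth.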 The source made the active and inactive calls. No stated cut-off is given here; in the data, active = GI50 up to about 1.1 µM and inactive = higher.
How the values were obtained:
Assay in all cases: NCI-60 cell line screen, 48 h
TK-10 = system: TK-10
SNB-75 = system: SNB-75
PC-3 = system: PC-3
HCT-15 = system: HCT-15
SF-539 = system: SF-539
SK-MEL-5 = system: SK-MEL-5
A498 = system: A498
M14 = system: M14
COLO 205 = system: COLO 205
UACC-62 = system: UACC-62
U-251 = system: U-251
OVCAR-5 = system: OVCAR-5
BT-549 = system: BT-549
NCI-H23 = system: NCI-H23
RXF 393 = system: RXF 393
RPMI-8226 = system: RPMI-8226
ACHN = system: ACHN
UACC-257 = system: UACC-257
HCC 2998 = system: HCC 2998
K562 = system: K562

SMILES	GI50 (TK-10)	GI50 (SNB-75)	GI50 (PC-3)	GI50 (HCT-15)	GI50 (SF-539)	GI50 (SK-MEL-5)	GI50 (A498)	GI50 (M14)	GI50 (COLO 205)	GI50 (UACC-62)	GI50 (U-251)	GI50 (OVCAR-5)	GI50 (BT-549)	GI50 (NCI-H23)	GI50 (RXF 393)	GI50 (RPMI-8226)	GI50 (ACHN)	GI50 (UACC-257)	GI50 (HCC 2998)	GI50 (K562)
CN(CC(=O)O)Cc1c(O)c(Cl)cc(Cl)c1Cl	37.8 µM (inactive)	92.5 µM (inactive)	41.4 µM (inactive)	21.8 µM	22.4 µM (inactive)	24.7 µM (inactive)	46.1 µM (inactive)	22.2 µM (inactive)	34.6 µM (inactive)	23.1 µM (inactive)	17 µM (inactive)	26.5 µM (inactive)	75.5 µM (inactive)	95.3 µM (inactive)	76.4 µM (inactive)	37.4 µM (inactive)	36.5 µM (inactive)	19.8 µM (inactive)	–	–
O=C(/C=C/c1ccccc1)c1cc(Br)ccc1O	17.6 µM (inactive)	15.4 µM (inactive)	17.1 µM (inactive)	14.1 µM	–	15.3 µM (inactive)	13.8 µM (inactive)	24 µM (inactive)	17.3 µM (inactive)	13.9 µM (inactive)	15.1 µM (inactive)	22.3 µM (inactive)	16 µM (inactive)	16 µM (inactive)	18.8 µM (inactive)	6.84 µM (inactive)	15.1 µM (inactive)	14 µM (inactive)	17.5 µM (inactive)	4.28 µM (inactive)
CC(=O)O[C@@H]1[C@H]2[C@@H](OC(=O)c3ccccc3)[C@@H](C)C[C@]2(O)[C@H](OC(C)=O)[C@@]2(C)[C@@H]3CC(C)(C)C(=O)[C@]3(OC(C)=O)C[C@@]12C	> 25 µM (inactive)	1.95 µM (inactive)	17.7 µM (inactive)	> 25 µM	13.2 µM (inactive)	18.7 µM (inactive)	12.8 µM (inactive)	20.8 µM (inactive)	7.05 µM (inactive)	> 25 µM (inactive)	> 25 µM (inactive)	> 25 µM (inactive)	> 25 µM (inactive)	> 25 µM (inactive)	> 25 µM (inactive)	–	> 25 µM (inactive)	> 25 µM (inactive)	6.9 µM (inactive)	–
O=c1[nH]nc(Cc2ccccc2)n1Nc1ccccc1	> 100 µM (inactive)	17.2 µM (inactive)	> 100 µM (inactive)	> 100 µM	> 100 µM (inactive)	> 100 µM (inactive)	> 100 µM (inactive)	–	> 100 µM (inactive)	> 100 µM (inactive)	> 100 µM (inactive)	> 100 µM (inactive)	> 100 µM (inactive)	> 100 µM (inactive)	–	> 100 µM (inactive)	> 100 µM (inactive)	> 100 µM (inactive)	> 100 µM (inactive)	> 100 µM (inactive)
CCOC(=O)CN1CC(C2=C(O)CN(CC(=O)OCC)C2=O)=CC1=O	> 100 µM (inactive)	> 100 µM (inactive)	> 100 µM (inactive)	> 100 µM	> 100 µM (inactive)	> 100 µM (inactive)	> 100 µM (inactive)	> 100 µM (inactive)	> 100 µM (inactive)	> 100 µM (inactive)	> 100 µM (inactive)	> 100 µM (inactive)	> 100 µM (inactive)	> 100 µM (inactive)	–	> 100 µM (inactive)	> 100 µM (inactive)	> 100 µM (inactive)	> 100 µM (inactive)	> 100 µM (inactive)
COc1cc2c(cc1OCCN1CCN(CCOc3cc4c(cc3OC)C(=O)N3CCC[C@H]3C=N4)CC1)N=C[C@@H]1CCCN1C2=O	23.8 µM (inactive)	> 76.9 µM (inactive)	25.9 µM (inactive)	> 64.1 µM	10.2 µM (inactive)	17.8 µM (inactive)	37.1 µM (inactive)	25.1 µM (inactive)	24 µM (inactive)	14.3 µM (inactive)	24.8 µM (inactive)	26.2 µM (inactive)	21.5 µM (inactive)	17.1 µM (inactive)	26.1 µM (inactive)	1.56 µM (inactive)	> 39.1 µM (inactive)	> 56.6 µM (inactive)	–	15 µM (inactive)
Cc1ccc(-n2cnc(C(=N)C#N)c2N)cc1	> 100 µM (inactive)	> 100 µM (inactive)	> 100 µM (inactive)	> 100 µM	> 100 µM (inactive)	> 100 µM (inactive)	> 100 µM (inactive)	> 100 µM (inactive)	> 100 µM (inactive)	> 100 µM (inactive)	> 100 µM (inactive)	> 100 µM (inactive)	> 100 µM (inactive)	> 100 µM (inactive)	–	> 100 µM (inactive)	> 100 µM (inactive)	> 100 µM (inactive)	> 100 µM (inactive)	> 100 µM (inactive)
COc1cc(S(=O)(=O)Nc2nc(-c3ccc(N4C(=O)/C(=C/c5ccccc5)N=C4c4ccccc4)cc3)cs2)ccc1Cl	> 100 µM (inactive)	39.6 µM (inactive)	36.6 µM (inactive)	> 100 µM	41.1 µM (inactive)	26.9 µM (inactive)	31.3 µM (inactive)	56.4 µM (inactive)	40 µM (inactive)	21.2 µM (inactive)	36 µM (inactive)	> 100 µM (inactive)	38.5 µM (inactive)	25.2 µM (inactive)	32.1 µM (inactive)	–	> 100 µM (inactive)	55.2 µM (inactive)	–	41.6 µM (inactive)
Clc1ccc(OCc2nnc(CCCCCCCCc3nnc(COc4ccc(Cl)cc4)o3)o2)cc1	> 100 µM (inactive)	68.2 µM (inactive)	> 100 µM (inactive)	> 100 µM	–	> 100 µM (inactive)	> 100 µM (inactive)	89.7 µM (inactive)	> 100 µM (inactive)	> 100 µM (inactive)	29.4 µM (inactive)	> 100 µM (inactive)	> 100 µM (inactive)	79.3 µM (inactive)	47.3 µM (inactive)	> 100 µM (inactive)	> 100 µM (inactive)	> 100 µM (inactive)	> 100 µM (inactive)	48.1 µM (inactive)
C(=C\c1ccccc1)/C=N/c1ccc2c(c1)Cc1ccccc1-2	60.8 µM (inactive)	38.6 µM (inactive)	69 µM (inactive)	> 100 µM	–	98.9 µM (inactive)	> 100 µM (inactive)	62.2 µM (inactive)	–	> 100 µM (inactive)	18.7 µM (inactive)	> 100 µM (inactive)	60.4 µM (inactive)	36.1 µM (inactive)	> 100 µM (inactive)	–	> 100 µM (inactive)	–	–	34.2 µM (inactive)
O=C(O)CCC/N=C(\C(=N\CCCC(=O)O)c1ccccc1)c1ccccc1	> 100 µM (inactive)	> 100 µM (inactive)	> 100 µM (inactive)	> 100 µM	–	–	> 100 µM (inactive)	> 100 µM (inactive)	> 100 µM (inactive)	> 100 µM (inactive)	> 100 µM (inactive)	> 100 µM (inactive)	> 100 µM (inactive)	> 100 µM (inactive)	> 100 µM (inactive)	> 100 µM (inactive)	> 100 µM (inactive)	> 100 µM (inactive)	> 100 µM (inactive)	> 100 µM (inactive)
COc1cc(C2SCC(=O)N2c2ccc(NC(C)=O)cc2)cc(OC)c1OC (centres undefined)	> 100 µM (inactive)	–	> 100 µM (inactive)	94.2 µM	> 100 µM (inactive)	> 100 µM (inactive)	> 100 µM (inactive)	> 100 µM (inactive)	> 100 µM (inactive)	25.5 µM (inactive)	> 100 µM (inactive)	> 100 µM (inactive)	36.6 µM (inactive)	> 100 µM (inactive)	–	> 100 µM (inactive)	> 100 µM (inactive)	> 100 µM (inactive)	> 100 µM (inactive)	> 100 µM (inactive)
COC(=O)C1OC(O[C@H]2CC[C@]3(C)[C@H]4CC=C5[C@@H]6CC(C)(C)CC[C@]6(C(=O)OC)[C@H](O)C[C@@]5(C)[C@]4(C)CC[C@H]3C2(C)C)C(O)C(O)C1O (some centres undefined)	–	14.8 µM (inactive)	6.64 µM (inactive)	10.5 µM	–	13.4 µM (inactive)	12.6 µM (inactive)	5.22 µM (inactive)	4.98 µM (inactive)	12.5 µM (inactive)	11.6 µM (inactive)	13.1 µM (inactive)	15.7 µM (inactive)	6.21 µM (inactive)	5.22 µM (inactive)	4.9 µM (inactive)	11.5 µM (inactive)	15.3 µM (inactive)	2.7 µM (inactive)	2.8 µM (inactive)
COC(=O)C1(Cc2ccc3c(c2)CCC3)Cc2ccccc2C1O (centres undefined)	22.1 µM (inactive)	> 10 µM (inactive)	11.5 µM (inactive)	21.5 µM	17.5 µM (inactive)	16.3 µM (inactive)	18.2 µM (inactive)	19.6 µM (inactive)	17.3 µM (inactive)	14.5 µM (inactive)	16.8 µM (inactive)	28.6 µM (inactive)	18.7 µM (inactive)	19.8 µM (inactive)	–	24.5 µM (inactive)	18.3 µM (inactive)	15 µM (inactive)	15.3 µM (inactive)	12.2 µM (inactive)
CN(C)CCOc1ccc2[nH]c(C(=O)N3CC(CCl)c4c3cc([N+](=O)[O-])c3ccccc43)cc2c1 (centres undefined)	1.94 µM (inactive)	1.85 µM (inactive)	2.78 µM (inactive)	1.86 µM	1.69 µM (inactive)	1.7 µM (inactive)	2.94 µM (inactive)	2.07 µM (inactive)	3.25 µM (inactive)	2.21 µM (inactive)	2.06 µM (inactive)	2.32 µM (inactive)	2.3 µM (inactive)	2.74 µM (inactive)	1.55 µM (inactive)	2.67 µM (inactive)	1.95 µM (inactive)	2.01 µM (inactive)	–	1.79 µM (inactive)

— ChEMBL document CHEMBL1201862, “PubChem BioAssay data set” (2004)
